Laboratory results taken from patent US20160271139A1, “METHOD FOR NON-TOXIC TREATMENT FOR DRUG WITHDRAWAL” (DEMERX, INC., priority 2013, published 2016).
Entries after “also recorded” stand apart in the source; their conditions may differ.

Key:
[1] = tested on: opioid-dependent participants; assay: Safety (QT interval, adverse effects) in opioid-dependent participants; type: in vivo, human
Description: (§1) The efficacy of noribogaine in humans was evaluated in opioid-dependent participants in a randomized, placebo-controlled, double-blind trial. In the first cohort, six patients were orally administered a single dose of 60 mg noribogaine, and three patients received placebo. In the second cohort, five patients were orally administered a single dose of 120 mg noribogaine, and three patients received placebo.

cynomolgus monkey = assay: Single dose toxicity in cynomolgus monkeys; type: in vivo; conditions: oral gavage
Description: The objective of the study was to determine the toxicity and toxicokinetic profile of noribogaine following oral (gavage) administration to the cynomolgus monkey. The test article was administered as follows in Table 1:
Parameters monitored on the study included: mortality, clinical signs and body weights. Blood samples were collected for TK evaluation. […] The single dose maximum tolerated dose (MTD) was determined to be greater than 160 mg/kg based on the parameters monitored during the study.

[2] = tested on: animal models of addiction; conditions: cited from earlier work
[3] = Urine noribogaine and noribogaine glucuronide elimination in healthy volunteers; type: in vivo; conditions: human urine
[4] = Plasma noribogaine pharmacokinetics in healthy volunteers (Example 7); type: in vivo, human; conditions: for AUC0-216 / AUC0-∞ / CL/F / Tmax / t1/2: mean
[5] = tested on: opioid-dependent participants; assay: Efficacy in opioid-dependent participants: time to resumption of opioid substitution treatment; type: in vivo, human
Description: as §1

[6] = tested on: healthy, drug-free male volunteers; assay: Safety and tolerability in healthy volunteers; type: in vivo, human
Description: (§2) Safety and tolerability of noribogaine were tested in the group of volunteers from Example 1. […] Safety evaluations included clinical monitoring, recording of adverse events (AEs), safety laboratory tests, vital signs, ECO telemetry from −2 h to 6 h after dosing, and 12-lead electrocardiograms (ECGs) up to 216 hours post-dosing.

[7] = tested on: healthy, drug-free male volunteers; assay: Pupillary miosis by pupillometry in healthy volunteers; type: in vivo, human; conditions: single oral 3-60 mg, vs placebo p>0.9
Description: Pulse oximetry and capnography data were collected continuously using a GE Carescape B650 monitoring system from 2 hours prior to dosing and until six hours after dosing, and thereafter at 12, 24, 48 and 72 hours post-dosing. […] Pupillary miosis was assessed by pupillometry.
Dose-proportionality of AUC and Cmax was assessed using linear regression.

various animal species = assay: Pre-clinical toxicity studies in various animal species (background); type: in vivo
[8] = tested on: healthy, drug-free male volunteers; assay: Cold pressor test in healthy volunteers; type: in vivo, human; conditions: single oral 3-60 mg, vs placebo p>0.9 and p=0.17
Description: Analgesic effect was assessed based on duration of hand immersion in ice water and on visual analog scale (VAS) pain scores upon hand removal from the water bath.
as §2

[9] = Human pharmacokinetic study, single oral dose, serum levels (Example 6); type: in vivo; conditions: human serum, fasting
Description: In double blind studies, fasting healthy volunteers (6 per cohort) were treated once orally with a tablet of noribogaine HCl. In escalating cohorts, the volunteers received 3 mg, 10 mg, 30 mg or 60 mg noribogaine.

[10] = Plasma toxicokinetics in dogs, days 1 and 14; type: in vivo, dog; conditions: for T1/2 / Tmax: mean plasma
Description: Noribogaine HCl was administered to groups of 4 male and 4 female dogs by single oral gavage daily for 14 days at doses of 0, 0.5, 1.0 and 5.0 mg/kg/day. An additional group of 4 male and 4 female dogs received either the vehicle control or 5.0 mg/kg/day for 14 days and were held for an additional 28 days after cessation of dosing to assess recovery from any potential drug-induced changes. The study was conducted under GLP guidelines and included comprehensive examinations of clinical signs, body weight, clinical pathology parameters, ophthalmologic examinations. ECG recordings and analyses of plasma for bioanalytical measurement of drug levels at appropriate intervals during the study. At the termination of the dosing phase and at the termination of the recovery phase, all dogs were subjected to a complete post-mortem examination including gross examination of major organs and histologic examination of an extensive list of tissues. Additional sections of brain were obtained from cerebrum, cerebellus, brain stem and spinal cord and examined histologically to evaluate potential effects on brain histopathology. In addition, these sections were examined with immunohistochemical stains for GFAP for evidence of gliosis and Calbindin for a more comprehensive examination of cerebellar Purkinje cells.

[11] = opioid-dependent participants, single oral 60 mg or 120 mg
[12] = human plasma, single oral 3 mg (n = 6)
[13] = human plasma, single oral 10 mg (n = 6)
[14] = human plasma, single oral 30 mg (n = 6)
[15] = human plasma, single oral 60 mg (n = 6)
[16] = single oral dose 30 mg free base
[17] = female dogs, Gr 2 - 0.5 mg/kg, D1
[18] = female dogs, Gr 2 - 0.5 mg/kg, D14
[19] = female dogs, Gr 3 - 1.0 mg/kg, D1
[20] = female dogs, Gr 3 - 1.0 mg/kg, D14
[21] = female dogs, Gr 4 - 5.0 mg/kg, D1
[22] = female dogs, Gr 4 - 5.0 mg/kg, D14

In the case of `CC[C@H]1C[C@H]2C[C@H]3c4[nH]c5ccc(O)cc5c4CCN(C2)[C@@H]13` [noribogaine], the “Mean prolongation of the QT interval” value ([1]; first cohort, 60 mg noribogaine or placebo) is reported as “less than 10 ms”, the Adverse effects [1, 11] is reported as “No adverse effects of noribogaine were observed in any of the participants” and the Hallucinatory effects [1, 11] is reported as “no hallucinatory effects”. The “Mean prolongation of the QT interval” value ([1]; second cohort, 120 mg noribogaine or placebo) was “less than 40 ms”, the “Single dose maximum tolerated dose (MTD)” value (cynomolgus monkey) was “greater than 160 mg/kg” and the “Mortality or treatment related clinical signs” value (cynomolgus monkey; doses up to and including 160 mg/kg) was “No mortality or treatment related clinical signs”. The “Efficacy in animal models of addiction” value ([2]; alcohol, cocaine and opiate dependence) was “effective in animal models of addiction to alcohol, cocaine and opiate dependence”, the Psychotomimetic effects ([2]; animal model) was “had no activity” and the Drug-seeking behavior ([2]; various animal addiction models) was “significantly reduced drug-seeking behavior”. The “Total urine noribogaine elimination (sum of noribogaine and noribogaine glucuronide)” value ([3]; 30 mg dose group) was 1.16 mg, the “Total urine noribogaine elimination as share of the dose administered” value ([3]; 30 mg dose group) was 3.9% and the “Total urine noribogaine elimination (sum of noribogaine and noribogaine glucuronide)” value ([3]; 60 mg dose group) was 0.82 mg. For the same compound, the “Total urine noribogaine elimination as share of the dose administered” value ([3]; 60 mg dose group) was 1.4%, the “Dose proportionality of Cmax and AUC” value ([4]; human plasma, 3-60 mg) was “increased linearly with dose” and the Mean half-life estimates ([4]; human plasma, across dose groups) was 28 to 50 h. For the same compound, the “Time of peak concentrations after oral dosing” value ([4]; human plasma, across dose groups 3-60 mg) was 2 to 3 h, the AUC0-216 [4, 12] was 72.2 ng·h/mL and the “AUC0-∞” value [4, 12] was 74.2 ng·h/mL. The CL/F [4, 12] was 41.4 L/h, the Tmax [4, 12] was 1.9 h and the t1/2 [4, 12] was 40.9 h. For the same compound, the AUC0-216 [4, 13] was 251.4 ng·h/mL, the “AUC0-∞” value [4, 13] was 254.5 ng·h/mL and the CL/F [4, 13] was 42.3 L/h. The Tmax [4, 13] was 2.9 h, the t1/2 [4, 13] was 49.2 h and the AUC0-216 [4, 14] was 677.6 ng·h/mL. For the same compound, the “AUC0-∞” value [4, 14] was 700.4 ng·h/mL, the CL/F [4, 14] was 46.9 L/h and the Tmax [4, 14] was 1.8 h. The t1/2 [4, 14] was 27.6 h, the AUC0-216 [4, 15] was 1935.4 ng·h/mL and the “AUC0-∞” value [4, 15] was 1962.2 ng·h/mL. The CL/F [4, 15] was 34.0 L/h, the Tmax [4, 15] was 2.4 h and the t1/2 [4, 15] was 29.1 h. For the same compound, the Volume of distribution ([4]; human, across dose groups) was 1417 to 3086 L, the “Time to resumption of opioids longer than that reported for untreated patients in a similar study” value ([5]; first cohort, blinded: 60 mg noribogaine or placebo) was ~2 h and the “Average time to resumption of opioids” value ([5]; first cohort, blinded: single oral 60 mg noribogaine (6 patients) or placebo (3 patients)) was “approximately 8.7 hours”. For the same compound, the “Average time to resumption of OST” value ([5]; second cohort, 120 mg, five presumed noribogaine-treated patients (those with QT prolongation)) was “approximately 26.8 hours”, the “Average time to resumption of opioids” value ([5]; second cohort, blinded: single oral 120 mg noribogaine (5 patients) or placebo (3 patients)) was “approximately 23 hours” and the “Number of adverse events reported” value ([6]; healthy volunteers, 3 mg dose group) was “five adverse events were reported by two subjects”. For the same compound, the “Number of adverse events reported” value ([6]; healthy volunteers, 10 mg dose group, single subject) was “one adverse event”, the “Number of adverse events reported” value ([6]; healthy volunteers, 30 mg dose group, single subject) was “one adverse event” and the “Oximetry, capnography, respiratory rate” value ([6]; healthy volunteers, 3-60 mg) was “no changes in oximetry or capnography, or changes in respiratory rate”. The “Vital signs or safety laboratory tests” value ([6]; healthy volunteers, 3-60 mg) was “no changes in vital signs or safety laboratory tests of note”, the “QTcF values >500 msec” value ([6]; healthy volunteers, 3-60 mg, at any time) was “no QTcF values>500 msec at any time” and the “Adverse events, Mild” value ([6]; healthy volunteers, Dose 3 mg) was “Dizziness; also recorded: Epistaxis; also recorded: Headache; also recorded: Back pain”. The “Adverse events, Moderate” value ([6]; healthy volunteers, Dose 3 mg) was “Headache”, the “Adverse events, Mild” value ([6]; healthy volunteers, Dose 10 mg) was “Headache” and the “Adverse events, Mild” value ([6]; healthy volunteers, Dose 30 mg) was “Headache”. For the same compound, the “Single increase in QTcF” value ([6]; one subject dosed with 10 mg, at 24 hours post-dosing) was > 60 ms, the “Pupillary constriction (dark-adapted pupil diameter)” value [7] was “no evidence of pupillary constriction” and the “Toxicity at high doses” value (various animal species) was “can cause convulsions and other CNS-related clinical signs, respiratory arrest and death”. For the same compound, the “Analgesic effect (duration of hand immersion, VAS pain scores)” value [8] was “no analgesic effect”, the “time after administration at which mean Cmax was observed” value (“time after administration” below) ([9]; single oral dose 3 mg free base) was 1.9 h and the “time after administration” value ([9]; single oral dose 10 mg free base) was 2.9 h. For the same compound, the “mean Cmax” value [9, 16] was 55.0 ng/mL, the “time after administration” value [9, 16] was 1.75 h and the “time after administration” value ([9]; single oral dose 60 mg free base) was 1.75 h. It also gave a T1/2 [10, 17] of 1.0 h, a Tmax [10, 17] of 0.5 h and a T1/2 [10, 18] of 1.1 h. It also gave a Tmax [10, 18] of 1.0 h, a T1/2 [10, 19] of 1.4 h and a Tmax [10, 19] of 0.8 h. The T1/2 [10, 20] was 1.6 h, the Tmax [10, 20] was 0.5 h and the T1/2 [10, 21] was 4.3 h. It also gave a Tmax [10, 21] of 0.6 h, a T1/2 [10, 22] of 5.7 h and a Tmax [10, 22] of 0.6 h. For the same compound, the “Plasma level at 24 h post-dosing” value ([10]; male and female dogs of Group 4 (5.0 mg/kg), Days 1 and 14) was “significant levels of noribogaine were still detected”, the Tmax ([10]; male dogs, Gr 2 - 0.5 mg/kg, D1) was 0.7 h and the Tmax ([10]; male dogs, Gr 2 - 0.5 mg/kg, D14) was 0.7 h. The Tmax ([10]; male dogs, Gr 3 - 1.0 mg/kg, D1) was 0.9 h, the Tmax ([10]; male dogs, Gr 3 - 1.0 mg/kg, D14) was 0.8 h and the Tmax ([10]; male dogs, Gr 4 - 5.0 mg/kg, D1) was 0.6 h. The Tmax ([10]; male dogs, Gr 4 - 5.0 mg/kg, D14) was 0.9 h.
